Source: patent US9532990B2 (Zhejiang DTRM Biopharma Co. Ltd., priority 2014, dated 2017)
Read-outs that look alike come from different tables or passages of the source.

Experiment: Toxicokinetic (TK) study in dogs, 28-day
Assay type: in vivo, dog
Conditions: for Cmax / Tmax / AUC(0-t): dog, in vivo; for AUC(0-t): read-out: AUC0-24 h
[1] = female, 15 mg/kg/day, Study Day 1, Female
[2] = female, 15 mg/kg/day, Study Day 28, Female
[3] = female, 45 mg/kg/day, Study Day 1, Female
[4] = female, 45 mg/kg/day, Study Day 28, Female
[5] = female, 105 mg/kg/day, Study Day 28, Female
[6] = female, 150 mg/kg/day, Study Day 1, Female
[7] = male, 15 mg/kg/day, Study Day 1, Male
[8] = male, 15 mg/kg/day, Study Day 28, Male
[9] = male, 45 mg/kg/day, Study Day 1, Male
[10] = male, 45 mg/kg/day, Study Day 28, Male
[11] = male, 105 mg/kg/day, Study Day 28, Male
[12] = male, 150 mg/kg/day, Study Day 1, Male

With `C=CC(=O)N1CC[C@@H](n2nc(-c3ccc(Oc4c(F)c(F)cc(F)c4F)cc3F)c3c(N)ncnc32)C1` [Compound 45, 1-((R)-3-(4-amino-3-(2-fluoro-4-(2,3,5,6-tetrafluorophenoxy)phenyl)-1H-pyrazolo[3,4-d]pyrimidin-1-yl)pyrrolidin-1-yl)prop-2-en-1-one] the “AUC compared with ibrutinib” value (TK data) was “significantly higher than that of ibrutinib”, the Cmax [1] was 685 ± 212 ng/mL and the Tmax [1] was 1 h. It also gave an AUC(0-t) [1] of 2930 ng·h/mL, a Cmax [2] of 687 ± 123 ng/mL and a Tmax [2] of 2 h. For the same compound, the AUC(0-t) [2] was 3730 ± 549 ng·h/mL, the Cmax [3] was 1220 ± 431 ng/mL and the Tmax [3] was 2 h. For the same compound, the AUC(0-t) [3] was 6220 ± 3000 ng·h/mL, the Cmax [4] was 1060 ± 263 ng/mL and the Tmax [4] was 2 h. For the same compound, the AUC(0-t) [4] was 8130 ± 1490 ng·h/mL, the Cmax [5] was 2420 ± 670 ng/mL and the Tmax [5] was 2 h. It also gave an AUC(0-t) [5] of 17300 ± 2830 ng·h/mL, a Cmax [6] of 1850 ± 605 ng/mL and a Tmax [6] of 2 h. For the same compound, the AUC(0-t) [6] was 11200 ± 5990 ng·h/mL, the Cmax [7] was 746 ng/mL and the Tmax [7] was 2 h. The AUC(0-t) [7] was 3550 ng·h/mL, the Cmax [8] was 576 ± 145 ng/mL and the Tmax [8] was 2 h. For the same compound, the AUC(0-t) [8] was 3260 ± 732 ng·h/mL, the Cmax [9] was 1240 ± 381 ng/mL and the Tmax [9] was 2 h. The AUC(0-t) [9] was 6480 ± 1670 ng·h/mL, the Cmax [10] was 1470 ± 538 ng/mL and the Tmax [10] was 2 h. For the same compound, the AUC(0-t) [10] was 9170 ± 3810 ng·h/mL, the Cmax [11] was 2700 ± 769 ng/mL and the Tmax [11] was 2 h. The AUC(0-t) [11] was 16400 ± 5410 ng·h/mL, the Cmax [12] was 2460 ± 858 ng/mL and the Tmax [12] was 4 h. It also gave an AUC(0-t) [12] of 22900 ± 13900 ng·h/mL.
